# Results as given in patent US11278499B2, “Oral drug dosage form comprising various release profiles” (Triastek, Inc., priority 2015, dated 2022).
# Test: Release of benzoic acid from pie-shaped-compartment dosage form, UV 226 nm
# Assay type: physicochemical
# Conditions: PEG8000 flat tablet with pie shaped compartment; pH 8 Na2HPO4 solution, 37° C., 100 rpm; FIG. 18C
# Protocol: The release profile of the benzoic acid from the dosage form was measured as the following method. Na2HPO4 solution of pH 8 was prepared as dissolvent of benzoic acid. Benzoic acid solution of 120 μg/mL was serially diluted to 30 μg/mL, 15 μg/m, 7.5 μg/m, 3.75 μg/mL, and 1.875 μg/mL solutions, whose absorbance at 226 nm was measured using a UV spectrophotometer. The numbers obtained were treated with linear regression to generate a standard curve of benzoic acid concentration with the formula y=0.0599x+0.0347. To measure the released amount of benzoic acid, the dosage form was dissolved in degassed pH 8 Na2HPO4 solution at 37° C.±0.5° C. and […] at 100 rpm. 5 mL solution was collected from the solution at each time point to measure the concentration of benzoic acid with 5 mL dissolvent added back to the solution. The collected solution was filtered through 0.45 um membrane before transferred to an UV spectrophotometer for measuring the absorbance at 226 nm. The percentage of benzoic acid released was calculated using the following formula: […]
# Wherein Cn means concentrate measured, Vtmeans total solution volume,
# Vs means sample volume, Qbenzoic acid means amout of benzoic acid in the dosage form
smiles,measurement,value
"O=C(O)c1ccccc1 [benzoic acid, Benzoic acid]",release profile of the benzoic acid,matches a model profile
